A word on the Ki: it is a measure of affinity in units of concentration, obtained from inhibition or displacement.

For experiment [1], the target named is serotonin transporter (SERT) (Rattus norvegicus, UniProt P31652). Nature of the experiment: [3H]citalopram binding assay. Particulars: ratio of Ki values measured in this paper.
The subject of the next experiment is SERT. Nature of the experiment: SERT binding, inhibition of [3H]paroxetine. Particulars: ratio of Ki values taken from reference 21.
For another experiment, the target named is NET. Particulars: read-out: NET (Ki); value taken from the literature; cited from earlier work.

serotonin transporter (SERT), sequence (P31652 whole entry): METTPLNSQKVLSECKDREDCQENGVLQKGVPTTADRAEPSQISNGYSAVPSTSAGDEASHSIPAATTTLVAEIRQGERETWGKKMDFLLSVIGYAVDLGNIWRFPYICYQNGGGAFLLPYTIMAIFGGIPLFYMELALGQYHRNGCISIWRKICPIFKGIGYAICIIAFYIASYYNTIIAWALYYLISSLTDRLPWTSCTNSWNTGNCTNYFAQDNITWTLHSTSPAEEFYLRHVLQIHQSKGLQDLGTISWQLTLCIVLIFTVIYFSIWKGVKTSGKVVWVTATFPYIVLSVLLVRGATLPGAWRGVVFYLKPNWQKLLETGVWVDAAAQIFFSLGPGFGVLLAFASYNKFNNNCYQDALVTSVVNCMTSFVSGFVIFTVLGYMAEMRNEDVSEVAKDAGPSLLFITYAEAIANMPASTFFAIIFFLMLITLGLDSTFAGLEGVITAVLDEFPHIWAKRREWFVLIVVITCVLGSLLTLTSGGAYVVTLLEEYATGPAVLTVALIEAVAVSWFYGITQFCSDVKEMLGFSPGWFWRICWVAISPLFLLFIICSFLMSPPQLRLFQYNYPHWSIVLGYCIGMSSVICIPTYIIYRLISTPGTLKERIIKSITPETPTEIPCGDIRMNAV

With `CN1CCC(C(=O)OCc2ccc(Cl)c(Cl)c2)(c2ccc(Cl)c(Cl)c2)CC1.Cl` [Compound 8d, 3,4-Dichlorobenzyl 4-(3,4-dichlorophenyl)-1-methylpiperidine-4-carboxylate], the DAT/SERT in experiment [1] is on record as 1,200.
Turning to `O=C(O)C(=O)O.O=C(OCc1ccc(Cl)c(Cl)c1)C1(c2ccc(I)cc2)CCNCC1` [Compound 14c, 3,4-Dichlorobenzyl 4-(4-iodophenyl) piperidine-4-carboxylate], in experiment [1], the NET/SERT was 1,000.
In the case of `Cl.O=C(OCc1ccccc1)C1(c2ccc(Cl)c(Cl)c2)CCNCC1` [Compound 12a, Benzyl 4-(3,4-dichlorophenyl) piperidine-4-carboxylate], the DAT/SERT in experiment [1] is 100.
Take `CCOC(=O)C1(c2ccc3ccccc3c2)CCN(C)CC1.Cl` [Compound 2d]: in the experiment with SERT, the NET/SERT was 9,900.
Still for that read-out and setting: with `CCOC(=O)C1(c2ccc(I)cc2)CCN(C)CC1.Cl` [Compound 2c] the figure was 25,000.
For `CCOC(=O)C1(c2ccc(I)cc2)CCNCC1.Cl` [Compound 4c, Ethyl 4-(4-iodophenyl)-piperidine-4-carboxylate], the DAT/SERT in experiment [1] is 1,400.
Turning to `CCOC(=O)C1(c2ccc(Cl)c(Cl)c2)CCN(C)CC1.Cl` [Compound 2a], the NET/SERT with SERT is 4,000. For the same compound, the Ki at NET was 74.5 µM.

The values above are taken from paper PMC3713777 (Bioorganic & medicinal chemistry, 2010).
